In patent publication US10662193B2, “Carbazole and carboline compounds for use in the diagnosis, treatment, alleviation or prevention of disorders associated with amyloid or amyloid-like proteins” (AC IMMUNE SA, priority 2014, dated 2020) one finds Kd data, which are given here for 2 compounds.

In this experiment the target is Tau enriched paired helical filaments (PHF) from human Alzheimer's disease (AD) brains (Homo sapiens, UniProt P10636). Briefly: Assay 3: backscattering interferometry, dissociation constants (Kd). It is filed as binding. Particulars: PHF batch 6 (pooled frontal cortex, 25 AD patients); read-out: [Kd] on PHF batch 6. The source says:
Assay 3 (Backscattering Interferometry):
Determination of Dissociation Constants (Kd) of Compounds of this Invention
Enrichment of Paired Helical Filaments (PHF's) from Human Alzheimer's Disease Brains
For backscattering interferometry, Tau enriched paired helical filaments (PHF) from human Alzheimer's disease (AD) brains were used as a target. Due to the limited availability of tissues, to determine dissociation constants (Kd) of compounds of this invention to the target, two different batches of enriched PHF were used. These batches are identified as batch 6 and 7 and were prepared as follows.
PHF batch number 6 was prepared starting from 25 g frontal cortical tissue from post-mortem brains of 25 Alzheimer's disease (AD) patients which were obtained from the London Tissue Bank. The mean age at death for the AD patients was 76 years (48% females). Brain samples were characterized for Braak disease stage (Braak and Braak, 1991), with most donors displaying a stage VI. The postmortem interval between death and brain dissection was between 6 and 65 h. Human brain homogenates were prepared by SB Drug Discovery (Glasgow, Scotland, UK) from the post-mortem cortical tissue of the 25 patients). Each tissue (1 g) was homogenized with a Dounce glass homogenizer in 1.5 mL 100 mM 2-(N-morpholino) ethane-sulfonic acid (MES) pH 6.8, 0.75 M NaCl, 1 mM EGTA, 0.5 mM MgSO4, 2 mM DTT containing protease inhibitors (Complete; Roche 11697498001). For each sample, two aliquots containing 0.5 g brain homogenates in 0.75 mL were shipped to AC Immune SA on dry ice and stored at −80° C. For the enrichment of PHF, 1 aliquot per donor corresponding to total 12.5 g of brain tissue were thawed on ice and then incubated at 4° C. for 20 min to depolymerize any residual microtubules. All samples were then pooled and transferred to three polycarbonate centrifuge bottles (16×76 mm; Beckman 355603).
PHF batch number 7 was prepared starting from 32 g of parietal cortex tissue from post-mortem brain of one Alzheimer's disease (AD) patient was obtained from an external provider (Tissue Solution). The patient was a person who died for end stage AD. The brain sample was collected 5 h post-mortem and characterized for Braak disease stage (Braak and Braak, 1991) as stage VI. The method used for the PHF enrichment was modified from published procedures (Jicha et al., 1997; Rostagno and Ghiso, 2009). Around 16 g of the AD human brain was thawed on ice and homogenized with 50 ml of homogenization buffer [0.75 M NaCl in RAB buffer (100 mM 2-(N-morpholino) ethanesulfonic acid (MES), 1 mM EGTA, 0.5 mM MgSO4, 2 mM DTT, pH 6.8) supplemented with protease inhibitors (Complete; Roche 11697498001)] in a glass Dounce homogenizer. The homogenate was then incubated at 4° C. for 20 min to let depolymerize any residual microtubules, before being transferred into polycarbonate centrifuge bottles (16×76 mm; Beckman 355603). For both purifications, brain homogenates were then centrifuged at 11,000 g (12,700 RPM) in an ultracentrifuge (Beckman, XL100K) for 20 min at 4° C. using the pre-cooled 70.1 rotor (Beckman, 342184). Pellets were kept on ice. Supernatants were pooled into polycarbonate bottles and centrifuged again at 100,000 g (38,000 RPM) for 1 h at 4° C. in the 70.1 Ti rotor to isolate PHF-rich pellets, whereas soluble Tau remained in the supernatants. The pellets from the first and second centrifugations were resuspended in 120 mL of extraction buffer [10 mM Tris-HCl pH 7.4, 10% sucrose, 0.85 M NaCl, 1% protease inhibitor (Calbiochem 539131), 1 mM EGTA, 1% phosphatase inhibitor (Sigma P5726 and P0044)]. The solution was then transferred into polycarbonate centrifuge bottles (16×76 mm; Beckman 355603) and centrifuged at 15,000 g (14,800 RPM) in an ultracentrifuge (Beckman, XL100K) for 20 min at 4° C. using the 70.1 Ti rotor. […]

Chain of Tau enriched paired helical filaments (PHF) from human Alzheimer's disease (AD) brains (P10636 623-708 limits assumed): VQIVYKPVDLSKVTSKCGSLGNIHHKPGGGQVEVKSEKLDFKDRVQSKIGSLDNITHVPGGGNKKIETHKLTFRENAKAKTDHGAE

Consider `Cn1c2ccncc2c2ccc(Nc3ccc(F)c(F)c3)nc21` [Example 2], for which the Kd turned out to be 0.033 ± 0.005 µM. Next, `Cn1c2ccncc2c2ccc(Nc3cccc(OCCF)c3)nc21` [Example 8]: 0.019 ± 0.003 µM.

The term Kd denotes the concentration at which binding is half-saturated.
